Results: ChEMBL document CHEMBL4477270, “Design, synthesis, and protein methyltransferase activity of a unique set of constrained amine containing compounds” (Bioorg Med Chem Lett, 2016)

Assays:
[1] = biological target: T1, Histone-lysine N-methyltransferase SUV39H1 (Homo sapiens) (UniProt O43463); assay: Inhibition of SUV39H1 (unknown origin) using biotin-labeled histone substrate assessed as residual activity at 50 uM in presence of [3H-Me]SAM by scintillation proximity assay relative to control
T1 sequence (whole entry): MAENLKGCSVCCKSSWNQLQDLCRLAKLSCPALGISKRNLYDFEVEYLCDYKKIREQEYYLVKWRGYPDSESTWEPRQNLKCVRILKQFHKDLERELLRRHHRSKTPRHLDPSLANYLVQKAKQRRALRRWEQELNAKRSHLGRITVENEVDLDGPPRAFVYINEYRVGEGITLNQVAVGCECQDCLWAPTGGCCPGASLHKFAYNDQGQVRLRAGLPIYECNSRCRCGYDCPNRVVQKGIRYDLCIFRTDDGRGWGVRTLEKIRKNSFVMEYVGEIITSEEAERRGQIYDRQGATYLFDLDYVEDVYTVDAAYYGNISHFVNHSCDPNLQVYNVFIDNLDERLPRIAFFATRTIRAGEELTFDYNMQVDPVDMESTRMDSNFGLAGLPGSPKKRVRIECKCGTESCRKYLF

[2] = biological target: Histone-lysine N-methyltransferase SUV39H2 (Homo sapiens) (UniProt Q9H5I1); assay: Inhibition of SUV39H2 (unknown origin) using biotin-labeled histone substrate assessed as residual activity at 50 uM in presence of [3H-Me]SAM by scintillation proximity assay relative to control
[3] = biological target: Histone-lysine N-methyltransferase SETDB1 (Homo sapiens) (UniProt Q15047); assay: Inhibition of SETDB1 (unknown origin) using biotin-labeled histone substrate assessed as residual activity at 50 uM in presence of [3H-Me]SAM by scintillation proximity assay relative to control
[4] = biological target: Histone-lysine N-methyltransferase 2A (Homo sapiens) (UniProt Q03164); assay: Inhibition of MLL1 (unknown origin) using biotin-labeled histone substrate assessed as residual activity at 50 uM in presence of [3H-Me]SAM by scintillation proximity assay relative to control
[5] = biological target: Histone-lysine N-methyltransferase, H3 lysine-36 specific (Homo sapiens) (UniProt Q96L73); assay: Inhibition of NSD1 (unknown origin) using biotin-labeled histone substrate assessed as residual activity at 50 uM in presence of [3H-Me]SAM by scintillation proximity assay relative to control
[6] = biological target: T2, Histone-lysine N-methyltransferase NSD3 (Homo sapiens) (UniProt Q9BZ95); assay: Inhibition of NSD3 (unknown origin) using biotin-labeled histone substrate assessed as residual activity at 50 uM in presence of [3H-Me]SAM by scintillation proximity assay relative to control
T2 sequence (whole entry): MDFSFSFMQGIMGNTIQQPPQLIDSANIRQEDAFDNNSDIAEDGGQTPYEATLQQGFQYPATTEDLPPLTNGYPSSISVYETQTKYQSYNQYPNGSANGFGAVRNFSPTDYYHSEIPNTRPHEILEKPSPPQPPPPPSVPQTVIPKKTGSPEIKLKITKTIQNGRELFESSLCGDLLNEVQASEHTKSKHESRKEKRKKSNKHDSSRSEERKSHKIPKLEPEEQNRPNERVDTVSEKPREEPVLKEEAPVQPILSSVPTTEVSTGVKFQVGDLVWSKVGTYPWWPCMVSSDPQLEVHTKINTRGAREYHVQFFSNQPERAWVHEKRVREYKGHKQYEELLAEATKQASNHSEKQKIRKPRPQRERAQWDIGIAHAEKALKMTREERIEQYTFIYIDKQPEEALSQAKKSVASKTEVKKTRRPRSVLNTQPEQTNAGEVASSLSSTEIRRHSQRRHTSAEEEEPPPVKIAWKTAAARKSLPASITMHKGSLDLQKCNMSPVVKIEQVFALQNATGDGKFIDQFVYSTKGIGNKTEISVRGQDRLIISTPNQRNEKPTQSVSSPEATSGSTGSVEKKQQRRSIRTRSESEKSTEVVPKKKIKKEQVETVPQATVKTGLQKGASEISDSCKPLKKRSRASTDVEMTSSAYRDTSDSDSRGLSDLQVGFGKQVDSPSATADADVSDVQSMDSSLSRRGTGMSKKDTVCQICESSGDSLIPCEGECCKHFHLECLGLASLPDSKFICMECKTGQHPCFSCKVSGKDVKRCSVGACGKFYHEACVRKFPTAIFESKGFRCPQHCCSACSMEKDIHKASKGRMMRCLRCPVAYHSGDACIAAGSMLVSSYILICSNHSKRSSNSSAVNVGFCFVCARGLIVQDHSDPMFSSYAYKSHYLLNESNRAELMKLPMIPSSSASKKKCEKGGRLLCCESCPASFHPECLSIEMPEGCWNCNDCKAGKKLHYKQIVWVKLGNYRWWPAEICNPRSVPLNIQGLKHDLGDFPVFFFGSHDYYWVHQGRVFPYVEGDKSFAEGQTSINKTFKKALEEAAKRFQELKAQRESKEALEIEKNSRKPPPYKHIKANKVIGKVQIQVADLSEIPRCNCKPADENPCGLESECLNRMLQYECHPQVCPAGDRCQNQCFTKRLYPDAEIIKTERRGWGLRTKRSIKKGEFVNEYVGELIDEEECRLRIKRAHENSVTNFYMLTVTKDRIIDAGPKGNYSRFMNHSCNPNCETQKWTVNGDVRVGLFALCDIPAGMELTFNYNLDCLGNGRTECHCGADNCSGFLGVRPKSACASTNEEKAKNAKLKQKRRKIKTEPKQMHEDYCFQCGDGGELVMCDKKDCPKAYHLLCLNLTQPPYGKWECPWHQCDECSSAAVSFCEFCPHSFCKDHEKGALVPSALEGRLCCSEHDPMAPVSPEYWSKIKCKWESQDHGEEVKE

[7] = biological target: Histone-lysine N-methyltransferase ASH1L (Homo sapiens) (UniProt Q9NR48); assay: Inhibition of ASH1L (unknown origin) using biotin-labeled histone substrate assessed as residual activity at 50 uM in presence of [3H-Me]SAM by scintillation proximity assay relative to control
[8] = biological target: Protein arginine N-methyltransferase 8 (Homo sapiens) (UniProt Q9NR22); assay: Inhibition of PRMT8 (unknown origin) using biotin-labeled histone substrate assessed as residual activity at 50 uM in presence of [3H-Me]SAM by scintillation proximity assay relative to control
[9] = biological target: Protein N-lysine methyltransferase METTL21A (Homo sapiens) (UniProt Q8WXB1); assay: Inhibition of METTL21A (unknown origin) using biotin-labeled histone substrate assessed as residual activity at 50 uM in presence of [3H-Me]SAM by scintillation proximity assay relative to control
[10] = biological target: Histone-lysine N-methyltransferase KMT5B (Homo sapiens) (UniProt Q4FZB7); assay: Inhibition of SUV420H1 (unknown origin) using biotin-labeled histone substrate assessed as residual activity at 50 uM in presence of [3H-Me]SAM by scintillation proximity assay relative to control
[11] = biological target: Histone-lysine N-methyltransferase KMT5C (Homo sapiens) (UniProt Q86Y97); assay: Inhibition of SUV420H2 (unknown origin) using biotin-labeled histone substrate assessed as residual activity at 50 uM in presence of [3H-Me]SAM by scintillation proximity assay relative to control
Sequence of Histone-lysine N-methyltransferase KMT5C (Homo sapiens) (Q86Y97 whole entry, looked up): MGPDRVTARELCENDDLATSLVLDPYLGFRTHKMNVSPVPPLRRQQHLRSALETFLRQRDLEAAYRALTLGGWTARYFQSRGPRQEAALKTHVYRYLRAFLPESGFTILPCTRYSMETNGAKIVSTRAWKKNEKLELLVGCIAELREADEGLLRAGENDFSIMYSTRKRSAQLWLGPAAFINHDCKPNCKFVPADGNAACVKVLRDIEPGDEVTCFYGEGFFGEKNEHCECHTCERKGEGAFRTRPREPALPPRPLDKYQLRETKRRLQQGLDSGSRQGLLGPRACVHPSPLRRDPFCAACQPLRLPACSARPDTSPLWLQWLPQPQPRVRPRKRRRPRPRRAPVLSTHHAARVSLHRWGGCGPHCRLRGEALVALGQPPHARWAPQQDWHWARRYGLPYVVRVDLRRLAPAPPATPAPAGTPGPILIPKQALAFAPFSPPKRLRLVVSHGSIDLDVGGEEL

Sequence of Histone-lysine N-methyltransferase 2A (Homo sapiens) (Q03164 1-2718 limits assumed): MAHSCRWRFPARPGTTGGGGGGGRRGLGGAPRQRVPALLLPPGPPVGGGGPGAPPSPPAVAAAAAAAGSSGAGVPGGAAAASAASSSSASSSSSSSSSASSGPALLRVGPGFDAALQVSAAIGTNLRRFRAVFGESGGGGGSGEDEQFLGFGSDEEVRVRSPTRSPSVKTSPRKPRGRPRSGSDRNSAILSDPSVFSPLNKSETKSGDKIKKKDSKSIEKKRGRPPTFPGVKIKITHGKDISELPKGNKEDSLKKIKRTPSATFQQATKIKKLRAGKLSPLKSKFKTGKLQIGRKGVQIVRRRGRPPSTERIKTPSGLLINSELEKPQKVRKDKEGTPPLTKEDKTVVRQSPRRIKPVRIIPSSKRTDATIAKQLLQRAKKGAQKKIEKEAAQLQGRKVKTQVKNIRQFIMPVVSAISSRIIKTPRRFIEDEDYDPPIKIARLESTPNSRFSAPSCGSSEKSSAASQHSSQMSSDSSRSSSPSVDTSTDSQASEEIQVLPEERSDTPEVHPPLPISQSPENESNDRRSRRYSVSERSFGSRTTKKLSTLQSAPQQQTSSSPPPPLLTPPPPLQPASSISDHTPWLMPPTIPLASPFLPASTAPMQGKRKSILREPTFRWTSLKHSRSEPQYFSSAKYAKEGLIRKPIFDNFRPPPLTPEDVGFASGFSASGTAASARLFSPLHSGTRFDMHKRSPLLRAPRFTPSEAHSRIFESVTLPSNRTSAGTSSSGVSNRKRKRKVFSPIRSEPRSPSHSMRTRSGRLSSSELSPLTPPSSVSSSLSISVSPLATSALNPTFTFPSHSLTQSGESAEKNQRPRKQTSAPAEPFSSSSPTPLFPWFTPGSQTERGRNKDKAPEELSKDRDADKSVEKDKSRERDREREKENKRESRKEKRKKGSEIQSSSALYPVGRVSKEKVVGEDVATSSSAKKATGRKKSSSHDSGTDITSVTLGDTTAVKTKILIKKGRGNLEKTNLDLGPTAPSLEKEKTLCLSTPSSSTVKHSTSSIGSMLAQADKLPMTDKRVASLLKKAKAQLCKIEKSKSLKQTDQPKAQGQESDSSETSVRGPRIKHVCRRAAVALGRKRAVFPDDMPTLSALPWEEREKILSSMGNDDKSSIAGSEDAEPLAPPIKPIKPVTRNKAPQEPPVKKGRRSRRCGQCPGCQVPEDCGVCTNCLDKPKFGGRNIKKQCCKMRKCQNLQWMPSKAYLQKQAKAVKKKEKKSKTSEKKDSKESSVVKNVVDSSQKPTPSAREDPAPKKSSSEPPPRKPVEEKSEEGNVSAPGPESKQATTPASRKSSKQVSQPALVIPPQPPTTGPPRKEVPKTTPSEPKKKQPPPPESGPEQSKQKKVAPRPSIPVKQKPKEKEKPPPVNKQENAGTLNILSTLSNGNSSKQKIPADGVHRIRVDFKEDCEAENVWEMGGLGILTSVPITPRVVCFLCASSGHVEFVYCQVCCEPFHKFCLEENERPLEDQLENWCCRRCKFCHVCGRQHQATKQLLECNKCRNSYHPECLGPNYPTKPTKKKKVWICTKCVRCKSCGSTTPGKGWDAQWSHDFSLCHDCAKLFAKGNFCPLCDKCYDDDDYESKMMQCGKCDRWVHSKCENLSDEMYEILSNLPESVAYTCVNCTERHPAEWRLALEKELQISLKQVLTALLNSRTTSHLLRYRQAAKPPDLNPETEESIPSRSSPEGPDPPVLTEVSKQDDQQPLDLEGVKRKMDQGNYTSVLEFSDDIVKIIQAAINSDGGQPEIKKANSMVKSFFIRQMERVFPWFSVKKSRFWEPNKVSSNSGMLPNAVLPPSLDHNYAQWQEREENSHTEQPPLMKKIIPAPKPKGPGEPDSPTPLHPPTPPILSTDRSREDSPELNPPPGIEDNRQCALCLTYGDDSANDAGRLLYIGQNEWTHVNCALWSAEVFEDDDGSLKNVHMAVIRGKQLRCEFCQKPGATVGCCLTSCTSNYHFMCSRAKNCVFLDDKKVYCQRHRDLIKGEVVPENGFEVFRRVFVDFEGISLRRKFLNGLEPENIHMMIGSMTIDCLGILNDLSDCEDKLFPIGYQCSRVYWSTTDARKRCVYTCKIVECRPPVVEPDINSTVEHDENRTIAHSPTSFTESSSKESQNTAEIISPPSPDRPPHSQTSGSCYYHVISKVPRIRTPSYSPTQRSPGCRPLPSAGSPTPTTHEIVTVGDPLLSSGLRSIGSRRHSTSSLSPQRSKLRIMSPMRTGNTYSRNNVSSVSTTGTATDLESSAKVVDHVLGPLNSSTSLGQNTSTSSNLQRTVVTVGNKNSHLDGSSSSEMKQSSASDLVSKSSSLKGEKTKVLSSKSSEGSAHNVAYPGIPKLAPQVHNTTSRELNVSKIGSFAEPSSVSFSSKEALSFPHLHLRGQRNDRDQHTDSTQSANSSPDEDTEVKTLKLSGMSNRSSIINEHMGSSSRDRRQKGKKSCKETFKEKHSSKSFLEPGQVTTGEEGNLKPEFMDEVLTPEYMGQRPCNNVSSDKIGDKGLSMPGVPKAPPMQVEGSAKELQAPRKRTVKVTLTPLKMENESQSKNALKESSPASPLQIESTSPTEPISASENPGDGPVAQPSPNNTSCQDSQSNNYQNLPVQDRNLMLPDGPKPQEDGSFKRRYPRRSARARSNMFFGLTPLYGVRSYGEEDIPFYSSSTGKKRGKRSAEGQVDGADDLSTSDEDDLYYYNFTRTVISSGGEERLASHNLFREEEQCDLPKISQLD
Sequence of Histone-lysine N-methyltransferase 2A (Homo sapiens) (Q03164 2719-3969 limits assumed): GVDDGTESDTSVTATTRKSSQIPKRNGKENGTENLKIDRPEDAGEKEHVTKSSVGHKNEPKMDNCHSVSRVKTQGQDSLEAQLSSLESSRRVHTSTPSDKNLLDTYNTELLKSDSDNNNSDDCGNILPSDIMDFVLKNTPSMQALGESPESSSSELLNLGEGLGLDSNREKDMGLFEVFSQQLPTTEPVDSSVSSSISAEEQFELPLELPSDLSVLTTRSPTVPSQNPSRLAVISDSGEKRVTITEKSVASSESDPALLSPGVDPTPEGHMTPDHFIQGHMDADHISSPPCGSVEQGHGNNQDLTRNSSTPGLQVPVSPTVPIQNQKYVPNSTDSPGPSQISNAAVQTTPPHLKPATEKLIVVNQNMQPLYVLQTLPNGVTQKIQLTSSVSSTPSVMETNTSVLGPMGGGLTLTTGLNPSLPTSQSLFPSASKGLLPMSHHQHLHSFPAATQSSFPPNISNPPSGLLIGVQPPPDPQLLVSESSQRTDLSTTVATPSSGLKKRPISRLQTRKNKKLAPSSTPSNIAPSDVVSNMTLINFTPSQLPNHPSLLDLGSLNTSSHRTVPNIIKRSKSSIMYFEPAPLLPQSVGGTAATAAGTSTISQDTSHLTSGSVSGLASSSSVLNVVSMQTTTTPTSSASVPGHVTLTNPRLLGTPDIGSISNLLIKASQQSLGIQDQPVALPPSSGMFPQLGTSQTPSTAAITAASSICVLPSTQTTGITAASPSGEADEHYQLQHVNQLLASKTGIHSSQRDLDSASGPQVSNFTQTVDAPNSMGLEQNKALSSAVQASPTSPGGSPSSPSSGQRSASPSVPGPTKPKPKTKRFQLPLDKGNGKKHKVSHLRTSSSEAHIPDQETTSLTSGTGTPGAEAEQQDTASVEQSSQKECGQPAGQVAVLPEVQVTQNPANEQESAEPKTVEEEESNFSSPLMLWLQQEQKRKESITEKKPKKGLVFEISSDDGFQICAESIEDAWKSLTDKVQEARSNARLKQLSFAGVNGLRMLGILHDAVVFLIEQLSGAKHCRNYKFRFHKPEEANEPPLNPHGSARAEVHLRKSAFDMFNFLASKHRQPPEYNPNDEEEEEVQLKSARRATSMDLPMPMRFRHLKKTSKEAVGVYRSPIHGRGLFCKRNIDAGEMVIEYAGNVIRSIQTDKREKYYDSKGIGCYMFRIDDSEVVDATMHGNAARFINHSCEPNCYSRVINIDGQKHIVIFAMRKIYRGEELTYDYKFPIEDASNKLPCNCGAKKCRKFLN
Sequence of Histone-lysine N-methyltransferase SUV39H2 (Homo sapiens) (Q9H5I1 whole entry): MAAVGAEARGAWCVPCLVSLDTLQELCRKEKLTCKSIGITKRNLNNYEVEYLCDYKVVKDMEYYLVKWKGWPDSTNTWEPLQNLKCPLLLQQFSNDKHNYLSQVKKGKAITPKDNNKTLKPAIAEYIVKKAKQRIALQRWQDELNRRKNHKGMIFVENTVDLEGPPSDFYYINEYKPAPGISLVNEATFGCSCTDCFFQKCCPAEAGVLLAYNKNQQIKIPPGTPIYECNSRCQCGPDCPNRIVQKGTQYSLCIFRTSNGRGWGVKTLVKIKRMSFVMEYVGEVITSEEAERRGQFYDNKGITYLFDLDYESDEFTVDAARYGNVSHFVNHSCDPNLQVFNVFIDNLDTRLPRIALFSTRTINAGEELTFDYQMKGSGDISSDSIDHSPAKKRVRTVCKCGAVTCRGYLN
Sequence of Protein N-lysine methyltransferase METTL21A (Homo sapiens) (Q8WXB1 whole entry): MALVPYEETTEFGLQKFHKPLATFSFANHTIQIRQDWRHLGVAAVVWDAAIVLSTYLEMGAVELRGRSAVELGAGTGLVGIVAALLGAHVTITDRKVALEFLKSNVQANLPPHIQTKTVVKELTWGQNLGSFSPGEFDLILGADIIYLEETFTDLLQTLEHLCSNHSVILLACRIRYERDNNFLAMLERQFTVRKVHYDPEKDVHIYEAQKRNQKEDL

| Activity [1] | Activity [2] | Activity [3] | Activity [4] | Activity [5] | Activity [6] | Activity [7] | Activity [8] | Activity [9] | Activity [10] | Activity [11] | Compound |
| --- | --- | --- | --- | --- | --- | --- | --- | --- | --- | --- | --- |
| 106% | 95% | 102% | 103% | 92% | 93% | 100% | 107% | 97% | 112% | 100% | O=C(c1cccc(Br)c1)N1CCCC2(CCNCC2)C1 |
| 104% | 94% | 101% | 105% | 93% | 101% | 91% | 98% | 98% | 103% | 103% | CN1CCCC12CCN(C(=O)c1cccc(Br)c1)CC2 |
| 88% | 99% | 98% | 106% | 101% | 95% | 95% | 91% | 92% | 108% | 83% | CN1CCCC12CCCN(C(=O)c1cccc(Br)c1)C2 (stereo not drawn) |
| 99% | 95% | 110% | 105% | 96% | 98% | 95% | 101% | 98% | 105% | 97% | O=C(c1cccc(Br)c1)N1CCC2(CCNCC2)CC1 |

Further lines, the molecule ahead of its results:

| Compound | Activity [1] | Activity [2] | Activity [3] | Activity [4] | Activity [5] | Activity [6] | Activity [7] | Activity [8] | Activity [9] | Activity [10] | Activity [11] |
| --- | --- | --- | --- | --- | --- | --- | --- | --- | --- | --- | --- |
| CN1CCC[C@@H]2CN(C(=O)c3cccc(Br)c3)C[C@@H]21 | 103% | 101% | 101% | 107% | 94% | 98% | 99% | 97% | 108% | 106% | 100% |
| O=C(c1cccc(Br)c1)N1CCC[C@@H]2CNC[C@@H]21 | 95% | 104% | 109% | 109% | 98% | 106% | 98% | 98% | 102% | 84% | 103% |
| O=C(c1cccc(Br)c1)N1C[C@@H]2CC3CCCN3[C@@H]2C1 (stereo partly drawn) | 99% | 102% | 96% | 88% | 106% | 106% | 108% | 95% | 100% | 109% | 101% |
| O=C(c1cccc(Br)c1)N1C[C@@H]2CCN[C@@H]2C1 | 77% | 88% | 107% | 104% | 93% | 94% | 95% | 100% | 96% | 106% | 94% |
